Assay results: ChEMBL document CHEMBL3039007, “Structure-based identification of OATP1B1/3 inhibitors” (Mol Pharmacol, 2013)

Experiments:
[1] = molecular target: T1, Solute carrier organic anion transporter family member 1B1 (Homo sapiens, UniProt Q9Y6L6); conditions: chinese hamster, cho, 10 µM
T1 sequence (Q9Y6L6 whole entry): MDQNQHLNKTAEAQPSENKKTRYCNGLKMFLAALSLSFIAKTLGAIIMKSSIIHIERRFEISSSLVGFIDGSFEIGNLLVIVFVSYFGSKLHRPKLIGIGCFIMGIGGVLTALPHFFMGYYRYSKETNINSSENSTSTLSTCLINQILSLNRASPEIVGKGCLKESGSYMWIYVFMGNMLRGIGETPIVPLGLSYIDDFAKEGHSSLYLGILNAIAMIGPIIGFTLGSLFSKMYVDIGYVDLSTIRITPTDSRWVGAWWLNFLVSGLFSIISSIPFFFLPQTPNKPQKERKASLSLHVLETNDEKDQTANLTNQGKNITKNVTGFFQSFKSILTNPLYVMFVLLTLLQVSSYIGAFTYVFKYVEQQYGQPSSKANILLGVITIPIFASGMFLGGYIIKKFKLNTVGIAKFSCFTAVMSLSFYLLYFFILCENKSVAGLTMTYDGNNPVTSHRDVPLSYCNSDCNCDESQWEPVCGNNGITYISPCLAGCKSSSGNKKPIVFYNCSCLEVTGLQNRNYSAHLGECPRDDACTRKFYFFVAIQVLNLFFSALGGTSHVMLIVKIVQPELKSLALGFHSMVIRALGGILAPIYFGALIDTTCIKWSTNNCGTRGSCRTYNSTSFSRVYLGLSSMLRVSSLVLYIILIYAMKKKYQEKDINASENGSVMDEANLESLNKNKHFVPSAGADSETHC

[2] = molecular target: T2, Solute carrier organic anion transporter family member 1B3 (Homo sapiens, UniProt Q9NPD5); conditions: chinese hamster, cho, 10 µM
T2 sequence (Q9NPD5 whole entry): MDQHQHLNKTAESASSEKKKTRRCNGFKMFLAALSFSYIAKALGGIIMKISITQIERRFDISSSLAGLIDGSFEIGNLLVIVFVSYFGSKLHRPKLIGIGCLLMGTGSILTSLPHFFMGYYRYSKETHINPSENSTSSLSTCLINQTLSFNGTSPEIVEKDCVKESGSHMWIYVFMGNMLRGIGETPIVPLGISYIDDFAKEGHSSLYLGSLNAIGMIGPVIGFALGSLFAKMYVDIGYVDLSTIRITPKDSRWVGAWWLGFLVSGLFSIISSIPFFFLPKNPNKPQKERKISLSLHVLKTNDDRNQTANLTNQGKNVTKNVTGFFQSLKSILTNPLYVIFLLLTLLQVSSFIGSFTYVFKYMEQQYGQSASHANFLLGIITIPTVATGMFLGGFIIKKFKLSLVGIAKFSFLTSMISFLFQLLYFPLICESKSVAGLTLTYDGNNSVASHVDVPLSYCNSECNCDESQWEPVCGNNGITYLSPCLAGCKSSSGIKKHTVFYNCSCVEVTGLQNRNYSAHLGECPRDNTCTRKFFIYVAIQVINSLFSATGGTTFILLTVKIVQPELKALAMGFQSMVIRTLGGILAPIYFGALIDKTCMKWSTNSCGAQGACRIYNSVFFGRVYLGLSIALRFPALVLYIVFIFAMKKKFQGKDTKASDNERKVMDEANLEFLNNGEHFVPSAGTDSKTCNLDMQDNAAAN

SMILES	residual activity [1]	residual activity [2]
O[C@@H]1C[C@H]2CCC[C@@H](C1)N2Cc1ccccc1 [N-BENZYLTROPAN-4-OL]	92.31%	88.98%
CSCCC(NC=O)C(=O)NC(C)C(=O)O (stereo not drawn) [N-FORMYLMETHIONYLALANINE]	100.9%	108.8%
O=C(NCO)c1cccnc1 [N-HYDROXYMETHYLNICOTINAMIDE]	121.9%	92.24%
CN[C@H](CC(=O)O)C(=O)O [N-METHYL-D-ASPARTIC ACID (NMDA)]	101.6%	98.22%
COc1ccc2cc(CCC(C)=O)ccc2c1 [NABUMETONE]	203%	110.7%
NC(=O)c1ccc[n+]([C@@H]2O[C@H](COP(=O)([O-])OP(=O)(O)OC[C@H]3O[C@@H](n4cnc5c(N)ncnc54)[C@H](O)[C@@H]3O)[C@@H](O)[C@H]2O)c1 [NADIDE]	99.44%	115.4%
CC(C)(C)NCC(O)COc1cccc2c1CC(O)C(O)C2 (stereo not drawn) [NADOLOL]	76.36%	86.47%
CCOc1ccc2ccccc2c1C(=O)N[C@@H]1C(=O)N2[C@@H]1SC(C)(C)[C@@H]2C(=O)[O-].O.[Na+] [NAFCILLIN SODIUM]	74.51%	114.4%
CCN(CC)CCOC(=O)C(Cc1cccc2ccccc12)CC1CCCO1.O=C(O)C(=O)O (stereo not drawn) [NAFRONYL OXALATE]	74.24%	116.5%
Cl.Oc1ccc2c3c1O[C@H]1[C@@H](O)CC[C@@]4(O)[C@@H](C2)N(CC2CCC2)CC[C@]314 [NALBUPHINE HYDROCHLORIDE]	86.64%	96.59%
COP(=O)(OC)OC(Br)C(Cl)(Cl)Br (stereo not drawn) [NALED]	82.68%	110%
CCn1cc(C(=O)O)c(=O)c2ccc(C)nc21 [NALIDIXIC ACID]	63.37%	81.71%
C=CCN1CC[C@]23c4c5ccc(O)c4O[C@H]2C(=O)CC[C@@]3(O)[C@H]1C5.Cl [NALOXONE HYDROCHLORIDE]	111.5%	113.7%
Cl.O=C1CC[C@@]2(O)[C@H]3Cc4ccc(O)c5c4[C@@]2(CCN3CC2CC2)[C@H]1O5 [NALTREXONE HYDROCHLORIDE]	71.98%	86.99%
Cl.c1ccc2c(CC3=NCCN3)cccc2c1 [NAPHAZOLINE HYDROCHLORIDE]	100.7%	95.85%
COc1ccc2cc([C@H](C)CO)ccc2c1 [NAPROXOL]	241.9%	102.8%
O=C1C[C@@H](c2ccc(O)cc2)Oc2cc(O)cc(O)c21 [NARINGENIN]	96.26%	95.55%
C[C@@H]1O[C@@H](O[C@H]2[C@H](Oc3cc(O)c4c(c3)O[C@H](c3ccc(O)cc3)CC4=O)O[C@H](CO)[C@@H](O)[C@@H]2O)[C@H](O)[C@H](O)[C@H]1O [NARINGIN]	100.1%	137.8%
CC(C)[C@H]1CC[C@H](C(=O)N[C@H](Cc2ccccc2)C(=O)O)CC1 [NATEGLINIDE]	99.81%	70.33%
CN1CCOC(c2ccccc2)c2ccccc2C1 (stereo not drawn) [NEFOPAM]	102.9%	100.9%
COc1ccc(CCC(=O)c2c(O)cc(O[C@@H]3O[C@H](CO)[C@@H](O)[C@H](O)[C@H]3O[C@@H]3O[C@@H](C)[C@H](O)[C@@H](O)[C@H]3O)cc2O)cc1O [NEOHESPERIDIN DIHYDROCHALCONE]	53.61%	198.2%
CN(C)C(=O)Oc1cccc([N+](C)(C)C)c1.[Br-] [NEOSTIGMINE BROMIDE]	95.12%	101.1%

SMILES	residual activity [1]	residual activity [2]
CO[C@H]1[C@H](O)[C@H](O[C@H]2CC[C@@]3(C)[C@H](CC[C@@H]4[C@@H]3CC[C@]3(C)[C@@H](C5=CC(=O)OC5)CC[C@]43O)C2)O[C@@H](C)[C@@H]1O [NERIIFOLIN]	95.6%	148.8%
C=CC(C)(O)CC/C=C(\C)CCC=C(C)C (stereo not drawn) [NEROLIDOL]	147.7%	131.1%
O=C(O)c1cccnc1 [NIACIN]	124.4%	89.89%
COC(=O)C1=C(C)NC(C)=C(C(=O)OCCN(C)Cc2ccccc2)C1c1cccc([N+](=O)[O-])c1.Cl (stereo not drawn) [NICARDIPINE HYDROCHLORIDE]	56.95%	67.41%
CO[C@]12C[C@@H](COC(=O)c3cncc(Br)c3)CN(C)[C@@H]1Cc1cn(C)c3cccc2c13 [NICERGOLINE]	91.22%	124.1%
COC(=O)C1=C(C)NC(C)=C(C(=O)OC)C1c1ccccc1[N+](=O)[O-] [NIFEDIPINE]	75.83%	170.6%
Cc1c(NC(=O)c2cccnc2)c(=O)n(-c2ccccc2)n1C [NIFENAZONE]	96.39%	120.6%
O=C(O)c1cccnc1Nc1cccc(C(F)(F)F)c1 [NIFLUMIC ACID]	79.63%	83.73%
C[C@H](C[C@@H](O)[C@@H]1OC1(C)C)[C@@H]1CC[C@]2(C)C3=CC[C@H]4C(C)(C)C(=O)CC[C@]4(C)[C@H]3CC[C@@]12C [NILOTICIN]	72.03%	113.7%
CC1(C)NC(=O)N(c2ccc([N+](=O)[O-])c(C(F)(F)F)c2)C1=O [NILUTAMIDE]	116.6%	97.83%
CS(=O)(=O)Nc1ccc([N+](=O)[O-])cc1Oc1ccccc1 [NIMESULIDE]	82.48%	58.26%
Cc1ncc(CNC(=O)N(CCCl)N=O)c(N)n1 [NIMUSTINE]	121.9%	112%
O=C(O)C1CCCNC1 (stereo not drawn) [NIPECOTIC ACID]	91.42%	103.2%
N=C(NCCC[C@H](N)C(=O)O)N[N+](=O)[O-] [NITROARGININE]	113.4%	113.8%
O=C1CN(/N=C/c2ccc([N+](=O)[O-])o2)C(=O)N1 [NITROFURANTOIN]	97.62%	100.8%
NC(=O)N/N=C/c1ccc([N+](=O)[O-])o1 [NITROFURAZONE]	93.46%	98.78%
NC(=O)c1cc([N+](=O)[O-])cc([N+](=O)[O-])c1 [NITROMIDE]	103.7%	106.7%
COC(=O)Nc1nc2ccc(C(=O)c3cccs3)cc2[nH]1 [NOCODAZOLE]	105.9%	95.15%
CN1Cc2c(N)cccc2C(c2ccccc2)C1.O=C(O)/C=C\C(=O)O (stereo not drawn) [NOMIFENSINE MALEATE]	59.46%	79.07%
CCCCC[C@H](CC(=O)O)C(=O)O [NONIC ACID]	128.4%	117%
CC(N)C(O)c1ccc(O)c(O)c1.Cl (stereo not drawn) [NORDEFRIN HYDROCHLORIDE]	122.3%	103.4%
NC[C@H](O)c1ccc(O)c(O)c1 [NOREPINEPHRINE]	112.9%	102.3%
